The values that follow come from US20120029190A1, “COMPOUNDS FOR TREATING DISORDERS MEDIATED BY METABOTROPIC GLUTAMATE RECEPTOR 5, AND METHODS OF USE THEREOF” (priority 2009, published 2012).

Molecules are shown by their SMILES. Read-outs that look alike come from different tables or passages of the source.

The test addresses T1, human recombinant mGluR5 receptor (Homo sapiens, UniProt P41594).
T1 construct: expressed in transfected cells; expression induced with doxycycline
Briefly: mGluR5 in vitro functional assay (aequorin cell line, inhibition of glutamate EC80 response). It counts as cell-based. The following applies: aequorin cell line expressing human mGluR5, reference agonist glutamate at EC80, obtained in duplicate, read-out: IC50. In outline:
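Doxycycline-induced (600 ng/mL, 18 h) aequorin cells loaded with coelenterazine h ≥4 h at room temperature; compound preincubated 3 min before glutamate at EC80. Luminescence recorded, normalized to digitonin or 20 mM ATP wells; % inhibition of EC80 response fitted by sigmoidal nonlinear regression.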

T1 sequence (P41594 21-1212): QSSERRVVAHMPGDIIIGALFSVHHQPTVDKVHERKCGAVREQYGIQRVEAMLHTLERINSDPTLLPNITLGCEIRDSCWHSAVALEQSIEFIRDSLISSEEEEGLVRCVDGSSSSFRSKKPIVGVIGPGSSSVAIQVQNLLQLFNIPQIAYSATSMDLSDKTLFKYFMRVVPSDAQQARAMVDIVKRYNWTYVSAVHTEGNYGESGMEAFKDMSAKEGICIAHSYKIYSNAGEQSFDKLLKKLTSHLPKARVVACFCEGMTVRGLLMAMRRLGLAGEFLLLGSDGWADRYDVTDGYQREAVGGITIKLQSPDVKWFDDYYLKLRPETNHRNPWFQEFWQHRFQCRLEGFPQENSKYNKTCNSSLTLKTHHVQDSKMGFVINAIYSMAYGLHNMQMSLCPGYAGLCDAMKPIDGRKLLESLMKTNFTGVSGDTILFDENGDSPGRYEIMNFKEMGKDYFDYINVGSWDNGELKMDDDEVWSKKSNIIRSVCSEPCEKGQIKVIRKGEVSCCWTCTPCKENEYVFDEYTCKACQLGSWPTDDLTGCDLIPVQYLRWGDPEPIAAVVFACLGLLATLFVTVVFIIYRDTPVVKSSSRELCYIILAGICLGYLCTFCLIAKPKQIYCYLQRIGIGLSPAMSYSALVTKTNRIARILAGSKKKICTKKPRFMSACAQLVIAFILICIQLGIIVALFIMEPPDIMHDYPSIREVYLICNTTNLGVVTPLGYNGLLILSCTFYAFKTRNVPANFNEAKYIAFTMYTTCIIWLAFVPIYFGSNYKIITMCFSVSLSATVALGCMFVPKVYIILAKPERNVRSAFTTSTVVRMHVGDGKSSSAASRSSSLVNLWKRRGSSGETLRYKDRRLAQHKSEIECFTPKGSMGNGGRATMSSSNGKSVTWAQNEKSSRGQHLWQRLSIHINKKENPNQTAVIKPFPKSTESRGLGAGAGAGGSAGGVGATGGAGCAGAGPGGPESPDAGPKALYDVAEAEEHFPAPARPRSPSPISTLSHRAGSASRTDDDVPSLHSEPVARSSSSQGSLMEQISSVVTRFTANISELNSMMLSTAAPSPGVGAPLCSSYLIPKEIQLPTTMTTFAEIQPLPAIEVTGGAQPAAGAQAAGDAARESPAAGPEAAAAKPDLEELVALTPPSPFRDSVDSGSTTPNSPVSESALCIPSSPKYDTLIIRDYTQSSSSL

On to `Fc1ccc(-c2nc3c(o2)CCCN(c2cc(F)cc(Cl)c2)C3)nc1` [Compound 205, 5-(3-Chloro-5-fluorophenyl)-2-(5-fluoropyridin-2-yl)-5,6,7,8-tetrahydro-4H-oxazolo[4,5-c]azepine], for which the IC50 (as a rule, the concentration that gives 50% inhibition) (Table 2) was below 1000 nM.
Consider `Clc1cccc(-c2nc3c(o2)CCN(c2cccnc2)C3)c1` [Compound 51, 2-(3-Chlorophenyl)-5-(pyridin-3-yl)-4,5,6,7-tetrahydrooxazolo[4,5-c]pyridine], for which the IC50 (Table 1) is below 1000 nM.
Consider `FC(F)(F)c1cccc(N2CCCc3nc(-c4ccccn4)oc3C2)c1` [Compound 95, 2-(Pyridin-2-yl)-5-(3-(trifluoromethyl)phenyl)-5,6,7,8-tetrahydro-4H-oxazolo[5,4-c]azepine], for which, under “Table 1”, the half-inhibitory concentration (IC50) is below 10000 nM.
Consider `Fc1ccc(-c2nc3c(o2)CCN(c2cccc(Cl)c2)C3)nc1` [Compound 125, 5-(3-chlorophenyl)-2-(5-fluoropyridin-2-yl)-4,5,6,7-tetrahydrooxazolo[4,5-c]pyridine], for which the IC50 (Table 2) was below 1000 nM.
The same measure, in the same setting: with `Fc1ccc(-c2nc3c(o2)CCN(c2cccc(F)c2)C3)nc1` [Compound 124, 5-(3-fluorophenyl)-2-(5-fluoropyridin-2-yl)-4,5,6,7-tetrahydrooxazolo[4,5-c]pyridine] the figure was below 1000 nM.
Take `CC1CN(c2cc(F)cc(C#N)c2)Cc2nc(-c3ccccn3)oc21` (racemic) [Compound 82, (+/−)-3-Fluoro-5-(7-methyl-2-(pyridin-2-yl)-6,7-dihydrooxazolo[4,5-c]pyridin-5(4H)-yl)benzonitrile]: under “Table 1”, the IC50 was below 1000 nM.
As for `N#Cc1cccc(N2CCc3nc(-c4ccccc4)oc3C2)c1` [Compound 148, 3-(2-Phenyl-6,7-dihydrooxazolo[5,4-c]pyridin-5(4H)-yl)benzonitrile], the IC50 (Table 2) was below 10000 nM.
The same measure, in the same setting: for `Fc1cccc(N2CCc3oc(-c4ccccn4)nc3C2)c1` [Compound 116, 5-(3-fluorophenyl)-2-(pyridin-2-yl)-4,5,6,7-tetrahydrooxazolo[4,5-c]pyridine] the value was below 1000 nM; for `Fc1ccc(N2CCCc3oc(-c4ncccn4)nc3C2)cc1Cl` [Compound 204, 5-(3-Chloro-4-fluorophenyl)-2-(pyrimidin-2-yl)-5,6,7,8-tetrahydro-4H-oxazolo[4,5-c]azepine], above 10000 nM.
`Fc1ccc(-c2nc3c(o2)CCN(c2cnccn2)C3)cc1` [Compound 47, 2-(4-Fluorophenyl)-5-(pyrazin-2-yl)-4,5,6,7-tetrahydrooxazolo[4,5-c]pyridine]: the IC50 (Table 1) is below 10000 nM.
Take `c1ccc(-c2nc3c(o2)CN(c2ccccn2)CC3)cc1` [Compound 20, 2-Phenyl-5-(pyridin-2-yl)-4,5,6,7-tetrahydrooxazolo-[5,4-c]pyridine]: the IC50 (Table 1) is above 10000 nM.
On the same count and under the same terms, with `N#Cc1cc(F)cc(N2CCc3nc(-c4ccccn4)oc3C2)c1` [Compound 4, 3-Fluoro-5-(2-(pyridin-2-yl)-6,7-dihydrooxazolo[5,4-c]pyridin-5(4H)-yl)benzonitrile] the figure was below 1000 nM.
Same read-out and setting: with `N#Cc1cc(F)cc(N2CCc3oc(-c4ccccn4)nc3C2)c1` [Compound 30, 3-Fluoro-5-(2-(pyridin-2-yl)-6,7-dihydrooxazolo[4,5-c]pyridin-5(4H)-yl)benzonitrile] the figure was below 1000 nM; with `CC1Cc2nc(-c3ccccn3)oc2CN1c1cc(F)cc(C#N)c1` (centres unmarked) [Compound 83, 3-Fluoro-5-(6-methyl-2-(pyridin-2-yl)-6,7-dihydrooxazolo[5,4-c]pyridin-5(4H)-yl)benzonitrile], below 1000 nM.
On to `N#Cc1cccnc1N1CCc2oc(-c3ccc(F)cc3)nc2C1` [Compound 46, 2-(2-(4-Fluorophenyl)-6,7-dihydrooxazolo[4,5-c]pyridin-5(4H)-yl)nicotinonitrile], for which the concentration for half-maximal inhibition (IC50) (Table 1) is above 10000 nM.
For `N#Cc1cc(F)cc(N2CCCc3oc(-c4cncnc4)nc3C2)c1` [Compound 206, 3-Fluoro-5-(2-(pyrimidin-5-yl)-7,8-dihydro-4H-oxazolo[4,5-c]azepin-5(6H)-yl)benzonitrile], for the setting “Table 2”, the IC50 is above 10000 nM.
For `N#Cc1cccc(N2CCc3nc(-c4ccccn4)oc3C2)n1` [Compound 6, 6-(2-(Pyridin-2-yl)-6,7-dihydrooxazolo[5,4-c]pyridin-5(4H)-yl)picolinonitrile], the IC50 (Table 1) was below 10000 nM.
On to `N#Cc1cccc(-c2nc3c(o2)CCN(c2ccccn2)C3)c1` [Compound 62, 3-(5-(Pyridin-2-yl)-4,5,6,7-tetrahydrooxazolo[4,5-c]pyridin-2-yl)benzonitrile], for which the IC50 (Table 1) was above 10000 nM.
On to `N#Cc1ccccc1N1CCc2oc(-c3ccccn3)nc2C1` [Compound 180, 2-(2-(Pyridin-2-yl)-6,7-dihydrooxazolo[4,5-c]pyridin-5(4H)-yl)benzonitrile], for which, under “Table 2”, the 50% inhibitory concentration (IC50) was below 1000 nM.
With `Clc1cccc(Cl)c1N1CCc2oc(-c3ccccn3)nc2C1` [Compound 174, 5-(2,6-Dichlorophenyl)-2-(pyridin-2-yl)-4,5,6,7-tetrahydrooxazolo[4,5-c]pyridine], the IC50 (Table 2) was below 1000 nM.
As for `N#Cc1ccc(F)cc1N1CCc2oc(-c3ccccn3)nc2C1` [Compound 176, 4-Fluoro-2-(2-(pyridin-2-yl)-6,7-dihydrooxazolo[4,5-c]pyridin-5(4H)-yl)benzonitrile], the IC50 (Table 2) is below 1000 nM.
Regarding `N#Cc1cccnc1N1CCn2cc(-c3cccc(Cl)c3)nc2C1` [Compound 108, 2-(2-(3-Chlorophenyl)-5,6-dihydroimidazo[1,2-a]pyrazin-7(8H)-yl)nicotinotrile], under “Table 1”, the IC50 was below 10000 nM.
As to `N#Cc1cccc(N2CCc3nc(-c4cccc[n+]4[O-])oc3C2)c1` [Compound 15, 2-(5-(3-Cyanophenyl)-4,5,6,7-tetrahydrooxazolo[5,4-c]pyridin-2-yl)pyridine 1-oxide], the IC50 (Table 1) was below 1000 nM.
